Measurements from US9802941B2, “Compounds and methods for inhibiting histone demethylases” (Gilead Sciences, Inc., priority 2014, dated 2017).
Like-named read-outs stand apart in the source and are kept apart here.

Legend:
Assay type in all cases: biochemical
[1] = molecular target: T1, KDM6A (UTX) (Homo sapiens, UniProt O15550); experiment: Histone lysine demethylase AlphaLISA assay, KDM6A
T1 construct: KDM6A (UTX); BRIC; 919-1401; E. coli; host or cells: E. coli
Protocol: The compounds of the application, or a pharmaceutically acceptable salt, or solvate, or prodrug thereof, are tested in an in vitro AlphaLISA assay. Enzymes are dissolved in enzyme buffer and incubated before they are added to DMSO solutions of compounds of the application, or a pharmaceutically acceptable salt, or solvate, or prodrug thereof, in enzyme buffer. The reaction mixture is then incubated for an additional period of time before substrate solution is added and then the resulting mixture again incubated. Acceptor beads and suspended Epigenetic Buffer from stock are added and the suspension is again incubated before a suspension of streptavidin donor beads in Epigenetic Buffer is added. After an additional period of incubation, the plates are read.
The ability of compounds of the application to inhibit the histone lysine demethylase activity in vitro of different enzymes was determined.
The reaction mixture was incubated for another 10 minutes before 5 μL of substrate solution was added and the resulting mixture was then incubated at room temperature. […] After incubation at room temperature in the dark, the plates were read.
Enzyme Buffer: 50 mM Hepes (pH 7.4-8.0), 0.003-0.01% Tween-20, 0.1% BSA; 5 μM (NH4)2Fe(SO4)2.

[2] = molecular target: T2, KDM2B (FBXL10) (Homo sapiens, UniProt Q8NHM5); experiment: Histone lysine demethylase AlphaLISA assay, KDM2B
T2 construct: KDM2B; BPS,; 1-650; Bac; purchased BPS Bioscience, US; host or cells: baculovirus system
T2 sequence (Q8NHM5 1-650): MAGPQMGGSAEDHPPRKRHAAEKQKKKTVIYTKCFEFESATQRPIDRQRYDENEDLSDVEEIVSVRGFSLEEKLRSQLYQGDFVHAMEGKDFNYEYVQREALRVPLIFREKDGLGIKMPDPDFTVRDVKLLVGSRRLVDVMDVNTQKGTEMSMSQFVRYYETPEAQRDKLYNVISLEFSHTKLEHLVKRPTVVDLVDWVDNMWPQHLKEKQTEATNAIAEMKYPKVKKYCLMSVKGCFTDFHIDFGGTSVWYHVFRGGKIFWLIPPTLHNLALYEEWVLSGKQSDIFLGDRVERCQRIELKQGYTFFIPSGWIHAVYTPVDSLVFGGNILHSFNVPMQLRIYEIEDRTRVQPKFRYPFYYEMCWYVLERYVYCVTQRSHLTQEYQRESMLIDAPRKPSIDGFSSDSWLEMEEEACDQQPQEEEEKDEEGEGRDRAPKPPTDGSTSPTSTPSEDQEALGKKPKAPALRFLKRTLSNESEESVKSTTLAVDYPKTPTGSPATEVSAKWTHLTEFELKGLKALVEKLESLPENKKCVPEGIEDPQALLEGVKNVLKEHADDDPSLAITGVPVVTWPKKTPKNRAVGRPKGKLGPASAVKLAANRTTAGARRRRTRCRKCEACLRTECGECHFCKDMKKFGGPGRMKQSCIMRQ
Summary of the method: (§1)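 AlphaLISA readout after sequential addition of acceptor beads and streptavidin donor beads, incubated at room temperature in the dark. Demethylase reaction ran at room temperature following a 10-minute enzyme–compound preincubation in 50 mM Hepes (pH 7.4-8.0), 0.1% BSA, Tween-20, 5 μM (NH4)2Fe(SO4)2.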

[3] = molecular target: T3, KDM5B (PLU-1) (Homo sapiens, UniProt Q9UGL1); experiment: Histone lysine demethylase AlphaLISA assay, KDM5B
T3 construct: BRIC; 1-809; E. coli; host or cells: E. coli
T3 sequence (Q9UGL1 1-809): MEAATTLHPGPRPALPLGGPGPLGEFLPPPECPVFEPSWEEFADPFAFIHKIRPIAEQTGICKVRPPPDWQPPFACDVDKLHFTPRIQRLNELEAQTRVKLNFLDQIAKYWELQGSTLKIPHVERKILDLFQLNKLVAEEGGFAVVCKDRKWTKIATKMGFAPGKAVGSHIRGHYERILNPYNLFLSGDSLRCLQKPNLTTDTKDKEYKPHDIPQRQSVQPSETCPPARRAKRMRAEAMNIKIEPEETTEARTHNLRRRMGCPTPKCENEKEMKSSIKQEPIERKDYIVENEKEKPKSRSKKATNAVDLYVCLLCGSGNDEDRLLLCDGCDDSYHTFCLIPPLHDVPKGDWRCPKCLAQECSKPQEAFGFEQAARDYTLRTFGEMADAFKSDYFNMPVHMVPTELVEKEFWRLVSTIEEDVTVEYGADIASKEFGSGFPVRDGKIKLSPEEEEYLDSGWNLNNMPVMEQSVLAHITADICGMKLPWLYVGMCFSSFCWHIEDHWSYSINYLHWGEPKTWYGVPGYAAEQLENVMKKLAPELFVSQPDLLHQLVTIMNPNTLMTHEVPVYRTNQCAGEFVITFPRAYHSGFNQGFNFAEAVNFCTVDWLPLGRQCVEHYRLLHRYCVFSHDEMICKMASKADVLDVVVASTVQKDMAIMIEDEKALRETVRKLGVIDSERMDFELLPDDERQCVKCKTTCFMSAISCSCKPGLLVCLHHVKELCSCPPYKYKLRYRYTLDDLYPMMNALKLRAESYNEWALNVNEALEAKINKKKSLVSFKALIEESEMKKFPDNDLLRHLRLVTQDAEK
Summary of the method: as §1

[4] = molecular target: T4, PHF8 (KDM7) (Homo sapiens, UniProt Q9UPP1); experiment: Histone lysine demethylase AlphaLISA assay, PHF8
T4 construct: KDM7 (PHF8); BRIC; 1-1322; Bac
T4 sequence (Q9UPP1 37-440 limits assumed): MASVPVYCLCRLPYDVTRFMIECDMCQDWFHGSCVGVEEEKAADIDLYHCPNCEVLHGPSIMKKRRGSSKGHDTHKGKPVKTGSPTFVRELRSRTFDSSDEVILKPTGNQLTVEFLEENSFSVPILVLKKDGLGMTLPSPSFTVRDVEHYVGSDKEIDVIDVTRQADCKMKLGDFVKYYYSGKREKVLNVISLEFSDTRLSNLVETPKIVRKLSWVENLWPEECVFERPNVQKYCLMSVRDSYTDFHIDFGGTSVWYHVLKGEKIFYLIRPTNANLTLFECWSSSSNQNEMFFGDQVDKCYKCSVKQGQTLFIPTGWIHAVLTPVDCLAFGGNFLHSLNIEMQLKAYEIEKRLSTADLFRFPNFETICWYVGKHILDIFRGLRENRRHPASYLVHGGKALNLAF
Summary of the method: as §1

[5] = molecular target: T5, KDM4C (JMJD2C) (Homo sapiens, UniProt Q9H3R0); experiment: Histone lysine demethylase AlphaLISA assay, KDM4C
T5 construct: KDM4C; BRIC, Denmark; 1-349; E. coli; host or cells: E. coli
T5 sequence (Q9H3R0 1-349): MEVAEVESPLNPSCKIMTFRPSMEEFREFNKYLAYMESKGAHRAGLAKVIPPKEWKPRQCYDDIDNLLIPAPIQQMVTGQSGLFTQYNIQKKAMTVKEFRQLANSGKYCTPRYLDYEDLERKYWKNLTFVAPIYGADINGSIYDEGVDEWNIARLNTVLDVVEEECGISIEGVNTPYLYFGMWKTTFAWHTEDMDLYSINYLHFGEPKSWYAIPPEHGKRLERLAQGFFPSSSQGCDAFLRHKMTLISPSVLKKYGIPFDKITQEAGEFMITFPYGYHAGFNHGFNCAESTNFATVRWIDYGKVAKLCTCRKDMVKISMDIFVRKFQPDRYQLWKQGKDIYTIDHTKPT
Summary of the method: as §1

[6] = AlphaLISA assay, read-out: HDME Inhibition KDM6A (IC50)
[7] = AlphaLISA, in vitro, read-out: HDME Inhibition KDM6A
[8] = AlphaLISA, in vitro, read-out: HDME Inhibition KDM2B
[9] = AlphaLISA, in vitro, read-out: HDME Inhibition KDM5B
[10] = AlphaLISA assay, read-out: HDME Inhibition PHF8 (IC50)
[11] = AlphaLISA, in vitro, read-out: HDME Inhibition PHF8
[12] = AlphaLISA assay, read-out: HDME Inhibition KDM4C (IC50)
[13] = AlphaLISA, in vitro, read-out: HDME Inhibition KDM4C
[14] = AlphaLISA assay, read-out: HDME Inhibition KDM2B (IC50)

T1 sequence (O15550 919-1401): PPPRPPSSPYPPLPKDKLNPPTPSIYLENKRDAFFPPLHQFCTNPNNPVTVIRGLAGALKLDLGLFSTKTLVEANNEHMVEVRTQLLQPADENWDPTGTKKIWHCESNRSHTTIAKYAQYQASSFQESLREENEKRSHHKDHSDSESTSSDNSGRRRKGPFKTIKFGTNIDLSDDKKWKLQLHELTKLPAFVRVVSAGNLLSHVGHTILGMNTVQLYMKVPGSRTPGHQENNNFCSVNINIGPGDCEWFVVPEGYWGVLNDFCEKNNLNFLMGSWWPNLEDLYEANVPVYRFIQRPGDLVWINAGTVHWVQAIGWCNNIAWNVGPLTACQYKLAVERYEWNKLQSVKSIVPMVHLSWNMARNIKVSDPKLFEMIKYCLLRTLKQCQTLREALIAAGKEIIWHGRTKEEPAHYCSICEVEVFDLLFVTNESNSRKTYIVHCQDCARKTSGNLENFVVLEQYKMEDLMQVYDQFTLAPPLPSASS

| IC50 [1, 6] [µM] | IC50 [1, 7] [µM] | IC50 [2, 8] [µM] | IC50 [3, 9] [µM] | IC50 [4, 10] [µM] | IC50 [4, 11] [µM] | IC50 [5, 12] [µM] | IC50 [5, 13] [µM] | IC50 ([3]; AlphaLISA assay, read-out: HDME Inhibition KDM5B (IC50)) [µM] | IC50 [2, 14] [µM] | IC50 [3] [µM] | Compound |
| --- | --- | --- | --- | --- | --- | --- | --- | --- | --- | --- | --- |
| > 10 | > 10 | 7.1 | 1.23 | > 10 | > 10 | > 10 | > 10 |  |  |  | Cc1cc(C(=O)O)cc(CN[C@H]2CCc3cccnc32)n1 [Compound 7, 2-({[(7S)-5H,6H,7H-cyclopenta[b]pyridin-7-yl]amino}methyl)-6-methylpyridine-4-carboxylic acid] |
| > 10 | > 10 | 1.54 | 5.48 |  | 6.93 | > 10 | > 10 |  |  |  | Cc1cc(C(=O)O)cc(CNCCc2ncccc2Br)n1 [Compound 11, 2-({[2-(3-bromopyridin-2-yl)ethyl]amino}methyl)-6-methylpyridine-4-carboxylic acid] |
|  | 8.35 | 2.23 |  |  |  | > 10 | > 10 |  |  | 0.262 | CC(=O)c1ccc(Cn2ccnc2CNCc2cc(C(=O)O)cc(C)n2)cc1 [Compound 24, 2-{[({1-[(4-acetylphenyl)methyl]-1H-imidazol-2-yl}methyl)amino]methyl}-6-methylpyridine-4-carboxylic acid] |

The remaining lines, values behind:

| Compound | IC50 [1, 6] [µM] | IC50 [1, 7] [µM] | IC50 [2, 8] [µM] | IC50 [3, 9] [µM] | IC50 [4, 10] [µM] | IC50 [4, 11] [µM] | IC50 [5, 12] [µM] | IC50 [5, 13] [µM] | IC50 ([3]; AlphaLISA assay, read-out: HDME Inhibition KDM5B (IC50)) [µM] | IC50 [2, 14] [µM] | IC50 [3] [µM] |
| --- | --- | --- | --- | --- | --- | --- | --- | --- | --- | --- | --- |
| Cc1cc(C(=O)O)cc(CNCc2ncc(C(C)C)n2Cc2ccc(F)cc2)n1 [Compound 8, 2-{[({1-[(4-fluorophenyl)methyl]-5-(propan-2-yl)-1H-imidazol-2-yl}methyl)amino]methyl}-6-methylpyridine-4-carboxylic acid] | > 10 | > 10 | 0.15 | > 10 |  | 0.384 | > 10 | > 10 | > 10 |  |  |
| CCC(C)c1cnc(CNCc2cc(C(=O)O)cc(C)n2)n1Cc1ccc(F)cc1 (centres unmarked) [Compound 9, 2-[({[5-(butan-2-yl)-1-[(4-fluorophenyl)methyl]-1H-imidazole-2-yl]methyl}amino)methyl]-6-methyl-pyridine-4-carboxylic acid] | > 10 | > 10 | > 10 |  | > 10 | > 10 |  | 0.299 |  | > 10 | 0.714 |
| CCCC(C)c1cnc(CNCc2cc(C(=O)O)cc(C)n2)n1Cc1ccc(F)cc1 (centres unmarked) [Compound 10, 2-{[({1-[(4-fluorophenyl)methyl]-5-(pentan-2-yl)-1H-imidazole-2-yl}methyl)amino]methyl}-6-methylpyridine-4-carboxylic acid] | > 10 | > 10 | > 10 |  | > 10 | > 10 |  | 1.37 |  | > 10 | 1.28 |
